From patent US11464793B2, “Nutritional formulations including human milk oligosaccharides and antioxidants and uses thereof” (priority 2010, dated 2022)

Legend:
[1] = test system: interleukin 10 (IL-10); assay: IL-10 in supernatants of peripheral blood mononuclear cells with or without RSV (Example 39); format: cell-based, human; details: in the presence or absence of RSV; FIGS. 7-10
Description: Specifically, either 3′SL or 6′SL is added, at concentrations of 0.1 mg/mL, 0.2 mg/mL, or 0.5 mg/mL to fresh peripheral blood mononuclear cells and incubated at 37° C. in 5% CO2 to pretreat the cells for approximately 24 hours. LNnT is added, at concentrations of 0.1 mg/mL, 0.2 mg/mL, or 1 mg/mL to fresh peripheral blood mononuclear cells and incubated at 37° C. in 5% CO2 to pretreat the cells for approximately 24 hours. Lactose is included as a carbohydrate control. Matched endotoxin unit concentration controls are included to allow differentiation of ingredient effects from inherent low levels of endotoxin. Some variables are then incubated with RSV at a multiplicity of infection (MOI) of 0.1 for approximately 1 hour at 37° C. in 5% in CO2. Uninfected control variables are incubated with medium for approximately 1 hour at 37° C. in 5% CO2. […]
Cytokines are measured in supernatants for each variable at 24 and 48 hours to assess the effects of HMOs on the early immune response to RSV. Cytokines are measured using custom Bio-Plex Human cytokine kits from Bio-Rad. […] A positive con-elation exists between RSV clinical disease severity in children (as measured by: length of hospital stay, fever, and number of days supplemental O2 is required) and serum IP-10. […]

[2] = test system: interferon-inducible protein 10 (IP-10); assay: IP-10 in supernatants of RSV-infected peripheral blood mononuclear cells pretreated with HMO (Example 39); format: cell-based, human; details: for IP-10 in virus-infected variables: PBMC of two donors, 24 h pretreatment, RSV MOI 0.1, supernatants at 24 and 48 hours, FIGS. 3-6; for IP-10 level reached relative to uninfected controls: RSV-infected PBMC; for dampening of virus-induced inflammation as measured by a decrease in IP-10, comparison: compared with 3′SL; for reduction of inflammation caused by RSV: pretreatment for 24 hours
Description: (§1) Specifically, either 3′SL or 6′SL is added, at concentrations of 0.1 mg/mL, 0.2 mg/mL, or 0.5 mg/mL to fresh peripheral blood mononuclear cells and incubated at 37° C. in 5% CO2 to pretreat the cells for approximately 24 hours. LNnT is added, at concentrations of 0.1 mg/mL, 0.2 mg/mL, or 1 mg/mL to fresh peripheral blood mononuclear cells and incubated at 37° C. in 5% CO2 to pretreat the cells for approximately 24 hours. Lactose is included as a carbohydrate control. Matched endotoxin unit concentration controls are included to allow differentiation of ingredient effects from inherent low levels of endotoxin. Some variables are then incubated with RSV at a multiplicity of infection (MOI) of 0.1 for approximately 1 hour at 37° C. in 5% in CO2. Uninfected control variables are incubated with medium for approximately 1 hour at 37° C. in 5% CO2. After approximately one hour, fresh medium alone, or fresh medium containing the appropriate concentration of 3′SL, 6′SL, LNnT, lactose, or endotoxin is added to the appropriate tubes and the cells are incubated for 48 hours at 37° C. in 5% CO2. Supernatants are collected at 24 and 48 hours post-infection.
(§2) Cytokines are measured in supernatants for each variable at 24 and 48 hours to assess the effects of HMOs on the early immune response to RSV. Cytokines are measured using custom Bio-Plex Human cytokine kits from Bio-Rad. Results for interferon-inducible protein 10 (IP-10, also known as CXCL 10) are shown in FIGS. 3 and 4 for 3′SL and 6′SL, and in FIGS. 5 and 6 for LNnT. IP-10 is a CXC chemokine that attracts, binds to and activates the CXCR3 receptor on natural killer cells and memory T cells. IP-10 is expressed by monocytes and a number of other cells, and is induced by interferon. A positive con-elation exists between RSV clinical disease severity in children (as measured by: length of hospital stay, fever, and number of days supplemental O2 is required) and serum IP-10. Therefore, a decrease in IP-10 signals a decrease in severity of RSV disease experienced.

[3] = test system: monocyte-derived cytokines; assay: Monocyte-derived cytokines in peripheral blood mononuclear cells with or without RSV (Example 39); format: cell-based, human; details: PBMC
Description: as §1, §2

[4] = test system: H1N1 influenza virus; format: cell-based; details: for IC50 (mg HMO/mL) H1N1 Influenza: co-incubation of virus (about 500 to 1,000 units/mL) with HMO at 1 or 10 mg/mL
[5] = test system: respiratory syncytial virus (RSV); assay: In vitro inhibition of viral infectivity by purified HMOs (Example 36), RSV; format: cell-based; details: co-incubation of virus (about 500 to 1,000 units/mL) with HMO at 1 or 10 mg/mL
Description: In this Example, the effect of purified human milk oligosaccharides (HMO) on in vitro inhibition of viral infectivity is analyzed.
Samples are prepared by co-incubation of a uniform virus dose of from about 500 units/mL to about 1,000 units/mL of one of three respiratory viruses: (1) respiratory syncytial virus (RSV); (2) human parainfluenza virus (HPIV3); or (3) H1N1 influenza virus with one of the following HMOs: (1) 3′-sialyllactose (3′SL); (2) 6′-sialyllactose (6′SL); (3) 3′-fucosyllactose (3′FL); (4) 2′-fucosyllactose (2′FL); (5) lacto-N-neotetraose (LNnT); or (6) sialic acid (SA). The HMOs are added at concentrations of either 1 mg/mL or 10 mg/mL.

[6] = test system: human parainfluenza virus (HPIV3); format: cell-based; details: co-incubation of virus (about 500 to 1,000 units/mL) with HMO at 1 or 10 mg/mL
[7] = test system: H1N1 influenza virus; assay: microbe, parasite or virus in culture; format: cell-based; details: HMO at 10 mg/mL, MDCK cells, FIG. 1

| SMILES | IL-10 concentration [1] | IP-10 in virus-infected variables [2] | IP-10 level reached relative to uninfected controls [2] | dampening of virus-induced inflammation as measured by a decrease in IP-10, comparison [2] | reduction of inflammation caused by RSV [2] | production of monocyte-derived cytokines (IL-10, MIP-1β, Interferon-γ, IL-8, IL-1α, IL-1β, IL-1ra) [3] | IC50 (mg HMO/mL) H1N1 Influenza [4] [mg HMO/mL] | IC50 (mg HMO/mL) RSV [5] [mg HMO/mL] | IC50 (mg HMO/mL) HPIV3 [6] [mg HMO/mL] | RSV-induced IP-10, Donor B ([2]; Donor B, 0.1, 0.2 or 0.5 mg/mL) | RSV-induced IP-10, Donor E ([2]; Donor E, 0.1, 0.2 or 0.5 mg/mL) | anti-viral activity against H1N1 influenza virus ([4]; HMO at 1 mg/mL) | inhibition of H1N1 virus infectivity [7] | inhibition at 10000 µg/mL ([7]; Influenza A virus, H1N1, read-out: inhibition of H1N1 virus infectivity) [%] |
| --- | --- | --- | --- | --- | --- | --- | --- | --- | --- | --- | --- | --- | --- | --- |
| CC(=O)N[C@H]1[C@H](O[C@H]2[C@@H](O)[C@@H](CO)O[C@@H](O[C@H]3[C@H](O)[C@@H](O)C(O)O[C@@H]3CO)[C@@H]2O)O[C@H](CO)[C@@H](O[C@@H]2O[C@H](CO)[C@H](O)[C@H](O)[C@H]2O)[C@@H]1O (mixture of isomers) [LNnT, lacto-N-neotetraose] | increases IL-10 concentration in a dose-dependent manner | clearly downregulates IP-10 | reduce IP-10 to levels found in uninfected controls | more effective than 3′SL | effective in reducing inflammation caused by RSV | immunomodulatory in the presence or absence of the virus | >10 | >10 |  |  |  |  |  |  |
| CC(=O)N[C@H]1[C@H]([C@H](O)[C@H](O)CO)O[C@@](O[C@H]2[C@@H](O)[C@@H](CO)O[C@@H](O[C@H]3[C@H](O)[C@@H](O)C(O)O[C@@H]3CO)[C@@H]2O)(C(=O)O)C[C@@H]1O (stereo partly shown) [3′SL, 3′-sialyllactose] |  | dampen RSV-induced IP-10 |  |  | effective in reducing inflammation caused by RSV | immunomodulatory in the presence or absence of the virus | ~5 | >10 | >10 | not effective | downregulates RSV-induced IP-10 | inhibited |  |  |
| CC(=O)N[C@H]1[C@H]([C@H](O)[C@H](O)CO)O[C@@](OC[C@H]2O[C@@H](O[C@H]3[C@H](O)[C@@H](O)[C@H](O)O[C@@H]3CO)[C@H](O)[C@@H](O)[C@H]2O)(C(=O)O)C[C@@H]1O [6′SL, 6′-sialyllactose] | increases interleukin 10 (IL-10) concentration in a dose-dependent manner | clearly downregulates IP-10 | reduce IP-10 to levels found in uninfected controls | more effective than 3′SL | effective in reducing inflammation caused by RSV | immunomodulatory in the absence of the virus | ~10 | >10 | >10 |  |  |  | approximately 60% |  |
| CC(=O)N[C@H]1[C@H]([C@H](O)[C@H](O)CO)OC(O)(C(=O)O)C[C@@H]1O (stereo partly shown) [SA, sialic acid] |  |  |  |  |  |  |  |  |  |  |  |  |  | > 90 |
